Assay results published in article PMC8982266 (Journal of medicinal chemistry, 2015).

Key:
[1] = tested on: human red blood cells (hRBCs)
[2] = tested on: P. aeruginosa clinical isolates; assay: Growth with efflux inhibitor reserpine; assay type: cell-based, Pseudomonas aeruginosa; details: P. aeruginosa isolate 1420
human A549 cells = assay: Cytotoxicity MTT assay; assay type: cell-based; details: for IC50: read-out: IC50 A549, toxicity towards human A549 cells, MTT, 48 hours
Enterococcus faecium = assay: MIC micro broth dilution assay; assay type: cell-based; details: E. faecium; purified compounds
E. cloacae [3] = assay: MIC micro broth dilution assay; assay type: cell-based; details: for MIC: E. cloacae, purified compounds; for concentration inhibiting growth of 90% of isolates: panel of clinical E. cloacae isolates
[4] = tested on: Acinetobacter baumannii biofilm; assay: Minimum biofilm eradication concentration; assay type: cell-based; details: A. baumannii biofilm; purified compounds
[5] = tested on: Staphylococcus aureus biofilm; assay: Minimum biofilm eradication concentration; assay type: cell-based; details: S. aureus biofilm; purified compounds
ESKAPE pathogens = assay: MIC micro broth dilution assay, all six species together; assay type: cell-based
E. cloacae biofilm = assay: Minimum biofilm eradication concentration; assay type: cell-based; details: purified compounds
[6] = tested on: Pseudomonas aeruginosa biofilm; assay: Minimum biofilm eradication concentration; assay type: cell-based; details: P. aeruginosa biofilm; purified compounds
Pseudomonas aeruginosa = assay: MIC micro broth dilution assay; assay type: cell-based; details: for MIC: P. aeruginosa, purified compounds; for concentration inhibiting growth of 90% of isolates: panel of clinical P. aeruginosa isolates
S. aureus = assay: Serial passage resistance assay; assay type: cell-based, Staphylococcus aureus; details: 8 passages, concentration doubled each day
Acinetobacter baumannii = assay: MIC micro broth dilution assay; assay type: cell-based; details: A. baumannii; purified compounds
[7] = tested on: Klebsiella pneumoniae biofilm; assay: Minimum biofilm eradication concentration; assay type: cell-based; details: K. pneumoniae biofilm; purified compounds
[8] = tested on: Enterococcus faecium biofilm; assay: Minimum biofilm eradication concentration; assay type: cell-based; details: E. faecium biofilm; purified compounds
Staphylococcus aureus = assay: MIC micro broth dilution assay; assay type: cell-based; details: S. aureus; purified compounds
Klebsiella pneumoniae = assay: MIC micro broth dilution assay; assay type: cell-based; details: for MIC: K. pneumoniae, purified compounds; for concentration inhibiting growth of 90% of isolates: panel of clinical K. pneumoniae isolates
[9] = tested on: Staphylococcus aureus (USA300 strain FPR3757); assay: Murine model of lethal peritonitis; assay type: in vivo; details: 2xMIC, I.M., 1h post-infection; six mice per group
MRSA cells = assay: Time kill assay; assay type: cell-based, Staphylococcus aureus
E. cloacae strain 1446 = assay: Growth with efflux inhibitor reserpine; assay type: cell-based; details: with 100 μM of reserpine
K. pneumoniae = assay: Serial passage resistance assay; assay type: cell-based, Klebsiella pneumoniae; details: 8 passages
E. cloacae [10] = assay type: cell-based; details: 8 passages
A. baumannii = assay: Serial passage resistance assay; assay type: cell-based, Acinetobacter baumannii; details: 8 passages
[11] = tested on: K. pneumoniae strain 1441; assay: Growth with efflux inhibitor reserpine; assay type: cell-based, Klebsiella pneumoniae; details: with 100 μM of reserpine
P. aeruginosa = assay type: cell-based, Pseudomonas aeruginosa; details: 8 passages

| Compound | IC50 (human A549 cells) [µM] | MIC (Enterococcus faecium) [µM] | MIC (E. cloacae [3]) [µM] | concentration inhibiting growth of 90% of isolates (E. cloacae [3]) [µM] | MBEC50 [4] [µM] | MBEC50 [5] [µM] | concentration with antibacterial activity against all 6 species (ESKAPE pathogens) [µM] | MBEC50 (E. cloacae biofilm) [µM] | MBEC50 [6] [µM] | MIC (Pseudomonas aeruginosa) [µM] | concentration inhibiting growth of 90% of isolates (Pseudomonas aeruginosa) [µM] | fold increase in MIC after serial passage (S. aureus) | MIC (Acinetobacter baumannii) [µM] | MBEC50 [7] [µM] | MIC (Staphylococcus aureus) [µM] | MIC (Klebsiella pneumoniae) [µM] | concentration inhibiting growth of 90% of isolates (Klebsiella pneumoniae) [µM] | survival of infected mice over 5 days [9] | other results |
| --- | --- | --- | --- | --- | --- | --- | --- | --- | --- | --- | --- | --- | --- | --- | --- | --- | --- | --- | --- |
| Triton-X100 | – | – | – | – | – | – | – | – | – | – | – | – | – | – | – | – | – | – | hemolysis, positive control [1]: 100% |
| COC(=O)[C@H]1[C@H]2C[C@@H]3c4[nH]c5cc(OC)ccc5c4CCN3C[C@H]2C[C@@H](OC(=O)c2cc(OC)c(OC)c(OC)c2)[C@@H]1OC [reserpine, reference compound] | – | – | – | – | – | – | – | – | – | – | – | – | – | – | – | – | – | – | effect on growth, reserpine alone ([2]; 100 μM of reserpine): no effect |
| (S)-4-butyl-3-hexyl-1-(4-((S)-2-imino-3-(3-(trifluoromethyl)phenethyl)imidazolidin-4-yl)butyl)imidazolidin-2-imine [compound 1] | 164 | 1.6 | 1.6 | 10 | 15 | 14 | < 2 | 13 | 20 | 1.6 | 10 | two-fold | 1.6 | 7.0 | 1.6 | 1.6 | 10 | all mice survived | effect on growth, compound combined with reserpine ([2]; 2 μM compound + 100 μM reserpine): strongly inhibited growth; effect on growth, compound alone ([2]; 2 μM of compound, no reserpine): no effect; MBEC50 [8]: 39 µM |
| lysostaphin: a S. aureus specific lytic agent, positive control | – | – | – | – | – | – | – | – | – | – | – | – | – | – | – | – | – | – | lysis of MRSA cells (MRSA cells; within 10 minutes of exposure, 4 μM lysostaphin): > 50% |
| benzalkonium chloride [reference compound] | – | – | – | – | – | – | – | – | – | – | – | – | – | – | – | – | – | – | cells recovered / surviving exposure (optical density relative to start) (MRSA cells; MRSA, 2 h, 2.0% SDS, 0.001% benzalkonium chloride, 0.001% benzethonium chloride): 29% |
| (S)-4-(cyclohexylmethyl)-3-hexyl-1-(4-((S)-2-imino-3-(3-(trifluoromethyl)phenethyl)imidazolidin-4-yl)butyl)imidazolidin-2-imine [compound 7] | 66 | 1.5 | 1.5 | 2 | 13 | 4.4 | < 2 | 15 | 46 | 1.5 | 10 | four-fold | 1.5 | 4.8 | 1.5 | 1.5 | 5 | 1 mouse lost on each of days 2 and 4 | A549 recovery (human A549 cells; above 45 μM, at concentrations up to 225 μM): ≥ 33%; A549 recovery (human A549 cells; at 45 μM): > 60%; effect on growth, compound in combination with reserpine (E. cloacae strain 1446): complete inhibition of growth; fold increase in MIC after serial passage (K. pneumoniae): ≤ 8 fold; fold increase in MIC after serial passage (E. cloacae [10]): ≤ 8 fold; fold increase in MIC after serial passage (A. baumannii): ≤ 8 fold; MBEC50 [8]: 26 µM |
| CCCC[C@H]1CN(CCCC[C@H]2CNC(=N)N2CCc2cccc(C(F)(F)F)c2)C(=N)N1CCCCC1CCCCC1 [compound 2, (S)-4-butyl-3-(4-cyclohexylbutyl)-1-(4-((S)-2-imino-3-(3-(trifluoromethyl)phenethyl)imidazolidin-4-yl)butyl)imidazolidin-2-imine] | – | – | – | 5 | – | – | < 2 | – | – | – | 5 | two-fold | – | – | – | – | 5 | only a single mouse succumbing to infection after the first day | – |
| (S)-1-(4-((S)-3-(4-cyclohexylbutyl)-2-iminoimidazolidin-4-yl)butyl)-4-(cyclohexylmethyl)-3-hexylimidazolidin-2-imine [compound 16] | > 225 | 1.6 | 1.6 | 2 | 14 | 7.6 | < 2 | 13 | 34 | 1.6 | 5 | 16 fold | 1.6 | 6.3 | 1.6 | 1.6 | 5 | only a single mouse succumbing to infection after the first day | A549 recovery (human A549 cells; at concentrations up to 100 μM): > 65%; effect on growth, compound in combination with reserpine [11]: complete inhibition of growth; fold increase in MIC after serial passage (K. pneumoniae): ≤ 8 fold; fold increase in MIC after serial passage (P. aeruginosa): 8 fold; fold increase in MIC after serial passage (E. cloacae [10]): ≤ 8 fold; fold increase in MIC after serial passage (A. baumannii): ≤ 8 fold |
